Literature values in PMC6916687 (Drug Design, Development and Therapy, 2019).

Columns and labels:
QGY-7703 cells = conditions: read-out: IC50 for QGY-7703 cells
MDA-MB-231 cells = conditions: read-out: IC50 for MDA-MB-231 cells

Row | IC50 (QGY-7703 cells) [µM] | IC50 (MDA-MB-231 cells) [µM] | Compound
1 | 6.27 | – | O=c1c2ccccc2oc2cc(-c3ccccc3)ccc12 [3-phenylxanthone]
2 | – | 48.4 | Cc1ccc2c(=O)c3cccc(CC(=O)O)c3oc2c1C [DMXAA, 5,6-dimethylxanthone-4-acetic acid]
